Tested on: RSV strain A2
Experiment: RSV antiviral cytoprotection assay in Hep2 cells (RSV-induced cytopathic effect, Cell TiterGlo)
Type: cell-based, Respiratory Syncytial Virus (RSV)
Details: human respiratory syncytial virus, HEp-2, 0.5 μM compound; RSV A2-infected Hep2 cells; % inhibition calculated from 4-parameter dose response curve, normalized to 0% and 100%; read-out: Percent inhibition at 0.5 μM
Experimental: Antiviral activity against RSV was determined using an in vitro cytoprotection assay in Hep2 cells. […] The method used was similar to methods previously described in published literature (Chapman et al., Antimicrob Agents Chemother. 2007, 51(9):3346-53.)
Hep2 cells were obtained from ATCC (Manassas, VI) and maintained in MEM media supplemented with 10% fetal bovine serum and penicillin/streptomycin. Cells were passaged twice a week and kept at subconfluent stage. Commercial stock of RSV strain A2 (Advanced Biotechnologies, Columbia, Md.) was titered before compound testing to determine the appropriate dilution of the virus stock that generated desirable cytopathic effect in Hep2 cells.
For antiviral tests, Hep2 cells were seeded into 96-well plates 24 hours before the assay at a density of 3,000 cells/well. On a separate 96 well plate, compounds to be tested were serially diluted in cell culture media. Eight concentrations in 3-fold serial dilution increments were prepared for each tested compound and 100 uL/well of each dilution was transferred in duplicate onto plates with seeded Hep2 cells. Subsequently, appropriate dilution of virus stock previously determined by titration was prepared in cell culture media and 100 uL/well was added to test plates containing cells and serially diluted compounds. Each plate included three wells of infected untreated cells and three wells of uninfected cells that served as 0% and 100% virus inhibition control, respectively. Following the infection with RSV, testing plates were incubated for 4 days in a tissue culture incubator. After the incubation, RSV-induced cytopathic effect was determined using a Cell TiterGlo reagent (Promega, Madison, Wis.) followed by a luminescence read-out. The percentage inhibition was calculated for each tested concentration relative to the 0% and 100% inhibition controls and the EC50 value for each compound was determined by non-linear regression as a concentration inhibiting the RSV-induced cytopathic effect by 50%. Ribavirin (purchased from Sigma, St. Louis, Mo.) was used as a positive control for antiviral activity.
Compounds were also tested for antiviral activity against RSV in Hep2 cells using a 384 well format. Compounds were diluted in DMSO using a 10-step serial dilution in 3-fold increments via automation in 4 adjacent replicates each. Eight compounds were tested per dilution plate. 0.4 uL of diluted compounds were then stamped via Biomek into 384-well plates (Nunc 142761 or 164730 w/lid 264616) containing 20 μL of media (Mediatech Inc. MEM supplemented with Glutamine, 10% FBS and Pen/Strep). DMSO and a suitable positive control compound, such as 80 μM GS-329467 or 10 μM 427346 was used for the 100% and 0% cell killing controls, respectively.
Hep2 cells (1.0×10^5 cells/ml) were prepared as above in batch to at least 40 mls excess of the number of sample plates (8 mls cell mix per plate) and infected with vendor supplied (ABI) RSV strain A2 to arrive at an MOI of 1:1000 (virus:cell #) or 1:3000 (vol virus: cell vol). Immediately after addition of virus, the RSV infected Hep2 cell suspension was added to each stamped 384-well plate at 20 μl per well using a uFlow dispenser, giving a final volume of 40 μL/well, each with 2000 infected cells. The plates were then incubated for 5 days at 37° C. and 5% CO2. Following incubation, the plates were equilibrated to room temperature in a biosafety cabinet hood for 1.5 hrs and 40 μL of Cell-Titer Glo viability reagent (Promega) was added to each well via uFlow. Following a10-20 minute incubation, the plates were read using an EnVision or Victor Luminescence plate reader (Perkin-Elmer). The data was then uploaded and analyzed on the Bioinformatics portal under the RSV Cell Infectivity and 8-plate EC50-Hep2-384 or 8-plate EC50-Hep2-Envision protocols. […]

Cc1ccc(C(=O)N2CCCC[C@H]2c2cc3nc(N4CC[C@H](N)C4)c(C)cn3n2)c(Cl)c1 [Compound 49]
inhibition at 0.5 µM: 99%

Cc1cn2nc([C@@H]3CCCCN3C(=O)c3ccc4cccnc4n3)cc2nc1N1CC[C@H](N)C1 [Compound 50]
inhibition at 0.5 µM: 15%

COc1cc2c(cc1C(=O)N1CCCC[C@H]1c1cc3nc(N4CC[C@H](N)C4)c(C)cn3n1)CCC2 [Compound 51]
inhibition at 0.5 µM: 100%

Cc1cn2nc([C@@H]3CCCCN3C(=O)c3ccc4cccc(F)c4n3)cc2nc1N1CC[C@H](N)C1 [Compound 52]
inhibition at 0.5 µM: 71%

Cc1cn2nc([C@@H]3CCCCN3C(=O)c3[nH]c4c(C)ccc(C)c4c3C)cc2nc1N1CC[C@H](N)C1 [Compound 53]
inhibition at 0.5 µM: 25%

Cc1cn2nc([C@@H]3CCCCN3C(=O)c3cccc4ccnn34)cc2nc1N1CC[C@H](N)C1 [Compound 54]
inhibition at 0.5 µM: 100%

Cc1cc(C)n2c(C(=O)N3CCCC[C@H]3c3cc4nc(N5CC[C@H](N)C5)c(C)cn4n3)nnc2n1 [Compound 55]
inhibition at 0.5 µM: 5%

Cc1cn2nc([C@@H]3CCCCN3C(=O)c3c(Cl)nc4ccccn34)cc2nc1N1CC[C@H](N)C1 [Compound 56]
inhibition at 0.5 µM: 84%

Cc1cn2nc([C@@H]3CCCCN3C(=O)c3cc4c(OC(F)F)cccc4[nH]3)cc2nc1N1CC[C@H](N)C1 [Compound 57]
inhibition at 0.5 µM: 13%

Cc1ccc(S(C)(=O)=O)cc1C(=O)N1CCCC[C@H]1c1cc2nc(N3CC[C@H](N)C3)c(C)cn2n1 [Compound 58]
inhibition at 0.5 µM: 61%

Cc1ccc(S(N)(=O)=O)cc1C(=O)N1CCCC[C@H]1c1cc2nc(N3CC[C@H](N)C3)c(C)cn2n1 [Compound 59]
inhibition at 0.5 µM: 52%

Cc1cn2nc([C@@H]3CCCCN3C(=O)c3cccc4c3CCCN4)cc2nc1N1CC[C@H](N)C1 [Compound 60]
inhibition at 0.5 µM: 100%

Cc1cn2nc([C@@H]3CCCCN3C(=O)c3cccc4c3OCO4)cc2nc1N1CC[C@H](N)C1 [Compound 61]
inhibition at 0.5 µM: 100%

Cc1cn2nc([C@@H]3CCCCN3C(=O)c3cc(F)cc4nc(C)c(C)nc34)cc2nc1N1CC[C@H](N)C1 [Compound 62]
inhibition at 0.5 µM: 11%

Cc1cn2nc([C@@H]3CCCCN3C(=O)c3cc(Cl)ccc3OC(C)C)cc2nc1N1CC[C@H](N)C1 [Compound 63]
inhibition at 0.5 µM: 100%

Cc1cc(C(=O)N2CCCC[C@H]2c2cc3nc(N4CC[C@H](N)C4)c(C)cn3n2)c2[nH]ncc2c1 [Compound 64]
inhibition at 0.5 µM: 100%

Cc1cn2nc([C@@H]3CCCCN3C(=O)c3cccc4c3OCC(=O)N4)cc2nc1N1CC[C@H](N)C1 [Compound 65]
inhibition at 0.5 µM: 97%

Cc1cn2nc([C@@H]3CCCCN3C(=O)c3ccccc3OC3CCCC3)cc2nc1N1CC[C@H](N)C1 [Compound 66]
inhibition at 0.5 µM: 95%

CCS(=O)(=O)c1ccc(F)c(C(=O)N2CCCC[C@H]2c2cc3nc(N4CC[C@H](N)C4)c(C)cn3n2)c1 [Compound 67]
inhibition at 0.5 µM: 21%

Cc1cn2nc([C@@H]3CCCCN3C(=O)c3ccc4ncccc4c3)cc2nc1N1CC[C@H](N)C1 [Compound 68]
inhibition at 0.5 µM: 37%

Cc1cn2nc([C@@H]3CCCCN3C(=O)c3ccccc3Cl)cc2nc1N1CC[C@H](N)C1 [Compound 69]
inhibition at 0.5 µM: 100%

Cc1cn2nc([C@@H]3CCCCN3C(=O)c3cccc(CO)n3)cc2nc1N1CC[C@H](N)C1 [Compound 70]
inhibition at 0.5 µM: 56%

Cc1cn2nc([C@@H]3CCCCN3C(=O)c3ncccc3F)cc2nc1N1CC[C@H](N)C1 [Compound 71]
inhibition at 0.5 µM: 98%

Cc1cn2nc([C@@H]3CCCCN3C(=O)c3ccc(F)c(F)c3C)cc2nc1N1CC[C@H](N)C1 [Compound 72]
inhibition at 0.5 µM: 100%

Cc1cn2nc([C@@H]3CCCCN3C(=O)c3ccc(F)cc3F)cc2nc1N1CC[C@H](N)C1 [Compound 73]
inhibition at 0.5 µM: 99%

Cc1cn2nc([C@@H]3CCCCN3C(=O)c3nc(Cl)ccc3Cl)cc2nc1N1CC[C@H](N)C1 [Compound 74]
inhibition at 0.5 µM: 100%

Cc1cc(F)c(F)cc1C(=O)N1CCCC[C@H]1c1cc2nc(N3CC[C@H](N)C3)c(C)cn2n1 [Compound 75]
inhibition at 0.5 µM: 100%

Cc1cn2nc([C@@H]3CCCCN3C(=O)c3ncccc3Br)cc2nc1N1CC[C@H](N)C1 [Compound 76]
inhibition at 0.5 µM: 99%

Cc1cc(F)ccc1C(=O)N1CCCC[C@H]1c1cc2nc(N3CC[C@H](N)C3)c(C)cn2n1 [Compound 77]
inhibition at 0.5 µM: 100%

Cc1ccc(F)cc1C(=O)N1CCCC[C@H]1c1cc2nc(N3CC[C@H](N)C3)c(C)cn2n1 [Compound 78]
inhibition at 0.5 µM: 100%

Cc1cn2nc([C@@H]3CCCCN3C(=O)c3c(F)cccc3F)cc2nc1N1CC[C@H](N)C1 [Compound 79]
inhibition at 0.5 µM: 100%

Cc1cn2nc([C@@H]3CCCCN3C(=O)c3cccc(-c4ccccc4)n3)cc2nc1N1CC[C@H](N)C1 [Compound 80]
inhibition at 0.5 µM: 14%

Cc1cn2nc([C@@H]3CCCCN3C(=O)c3cccc(F)n3)cc2nc1N1CC[C@H](N)C1 [Compound 81]
inhibition at 0.5 µM: 96%

Cc1cn2nc([C@@H]3CCCCN3C(=O)c3c(F)cccc3Cl)cc2nc1N1CC[C@H](N)C1 [Compound 82]
inhibition at 0.5 µM: 100%

Cc1cn2nc([C@@H]3CCCCN3C(=O)c3cc(Cl)ccn3)cc2nc1N1CC[C@H](N)C1 [Compound 83]
inhibition at 0.5 µM: 99%

COc1cccc(C(=O)N2CCCC[C@H]2c2cc3nc(N4CC[C@H](N)C4)c(C)cn3n2)c1C [Compound 84]
inhibition at 0.5 µM: 100%

COc1cc(C)c(C(=O)N2CCCC[C@H]2c2cc3nc(N4CC[C@H](N)C4)c(C)cn3n2)cc1C [Compound 85]
inhibition at 0.5 µM: 100%

Cc1cn2nc([C@@H]3CCCCN3C(=O)c3cc(C(F)(F)F)ccn3)cc2nc1N1CC[C@H](N)C1 [Compound 86]
inhibition at 0.5 µM: 80%

Cc1cn2nc([C@@H]3CCCCN3C(=O)c3cccc(C)c3C)cc2nc1N1CC[C@H](N)C1 [Compound 87]
inhibition at 0.5 µM: 100%

Cc1cn2nc([C@@H]3CCCCN3C(=O)c3c(C)cccc3C)cc2nc1N1CC[C@H](N)C1 [Compound 88]
inhibition at 0.5 µM: 100%

Cc1ccc(Cl)c(C(=O)N2CCCC[C@H]2c2cc3nc(N4CC[C@H](N)C4)c(C)cn3n2)c1 [Compound 89]
inhibition at 0.5 µM: 100%

Cc1ccc(Br)c(C(=O)N2CCCC[C@H]2c2cc3nc(N4CC[C@H](N)C4)c(C)cn3n2)c1 [Compound 90]
inhibition at 0.5 µM: 100%

COc1cc(C)ccc1C(=O)N1CCCC[C@H]1c1cc2nc(N3CC[C@H](N)C3)c(C)cn2n1 [Compound 92]
inhibition at 0.5 µM: 100%

Cc1cn2nc([C@@H]3CCCCN3C(=O)c3ccc(Cl)cn3)cc2nc1N1CC[C@H](N)C1 [Compound 93]
inhibition at 0.5 µM: 44%

COc1cc2ccccc2cc1C(=O)N1CCCC[C@H]1c1cc2nc(N3CC[C@H](N)C3)c(C)cn2n1 [Compound 94]
inhibition at 0.5 µM: 88%

Cc1cnc2c(C(=O)N3CCCC[C@H]3c3cc4nc(N5CC[C@H](N)C5)c(C)cn4n3)c(Cl)ccc2c1 [Compound 95]
inhibition at 0.5 µM: 21%

Cc1cn2nc([C@@H]3CCCCN3C(=O)c3ccc4ccccc4n3)cc2nc1N1CC[C@H](N)C1 [Compound 96]
inhibition at 0.5 µM: 65%

COc1ccc2ccccc2c1C(=O)N1CCCC[C@H]1c1cc2nc(N3CC[C@H](N)C3)c(C)cn2n1 [Compound 97]
inhibition at 0.5 µM: 100%

Cc1cn2nc([C@@H]3CCCCN3C(=O)c3cccc4c3cnn4C)cc2nc1N1CC[C@H](N)C1 [Compound 98]
inhibition at 0.5 µM: 97%

Cc1cn2nc([C@@H]3CCCCN3C(=O)c3csc4ccc(Br)cc34)cc2nc1N1CC[C@H](N)C1 [Compound 99]
inhibition at 0.5 µM: 100%
